Patent US12503436B2, “Compounds and compositions for treating conditions associated with STING activity” (NOVARTIS PHARMA AG, priority 2021, dated 2025)

Target: STING (Homo sapiens, UniProt Q86WV6, G230A/H232R/R293Q/R71H)
Assay: STING reporter assay in THP1-Dual KO-IFNAR2 cells (2′3′cGAMP stimulation, luciferase reporter)
Type: cell-based
Details: 15 μM 2′3′cGAMP stimulation, 24 h, read-out: Pharmaron, THP1_IFNAR2 STING 24 h Luci Normalized: GeoMean EC50
In short: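 THP1-Dual KO-IFNAR2 cells (2×10E6 cells/mL) with compounds at 0.0017-100 μM final, stimulated with 15 μM final 2′3′cGAMP delivered by Lipofectamine 2000; 24 h at 37 °C. Luciferase in supernatant read with QUANTI-Luc Plus; EC50 derived from luminescence.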

Sequence of STING (Q86WV6 whole entry R71H/G230A/H232R/R293Q): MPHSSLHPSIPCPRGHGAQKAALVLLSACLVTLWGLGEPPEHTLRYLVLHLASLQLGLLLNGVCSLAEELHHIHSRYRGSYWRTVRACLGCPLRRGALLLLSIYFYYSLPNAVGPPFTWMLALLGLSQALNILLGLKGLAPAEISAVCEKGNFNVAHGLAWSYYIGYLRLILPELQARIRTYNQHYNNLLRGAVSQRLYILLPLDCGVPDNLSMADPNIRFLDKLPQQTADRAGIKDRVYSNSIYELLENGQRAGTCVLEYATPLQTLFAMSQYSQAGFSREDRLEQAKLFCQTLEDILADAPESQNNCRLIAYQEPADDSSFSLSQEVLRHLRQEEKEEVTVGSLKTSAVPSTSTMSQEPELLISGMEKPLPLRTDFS

Row | Compound | EC50
1 | COCC1(C(=O)Nc2c[nH]c3ccc(OCCc4ccc(C(F)(F)F)cc4)cc23)CC1 [Compound 204, 1-(methoxymethyl)-N-(5-(4-(trifluoromethyl)phenethoxy)-1H-indol-3-yl)cyclopropane-1-carboxamide] | 40 to 200 nM
2 | C[C@H]1C[C@H](C(=O)Nc2c[nH]c3ccc(OCCc4ccc(C(F)(F)F)cc4)cc23)C1 [Compound 205, trans-3-methyl-N-(5-(4-(trifluoromethyl)phenethoxy)-1H-indol-3-yl)cyclobutane-1-carboxamide] | 40 to 200 nM
3 | C[C@H]1C[C@@H]1C(=O)Nc1c[nH]c2ccc(OCCc3ccc(C(F)(F)F)cc3)cc12 [Compound 206, (1S,2S)-2-methyl-N-(5-(4-(trifluoromethyl)phenethoxy)-1H-indol-3-yl)cyclopropane-1-carboxamide] | 40 to 200 nM
4 | O=C(Nc1c[nH]c2ccc(OCCc3ccc(C(F)(F)F)cc3)cc12)C1CC(F)C1 (centres unmarked) [Compound 207, 3-fluoro-N-(5-(4-(trifluoromethyl)phenethoxy)-1H-indol-3-yl)cyclobutane-1-carboxamide] | 40 to 200 nM
5 | CC(=O)Nc1c[nH]c2ccc(CCOc3ccccc3C3(C)CCN(CC(F)(F)F)CC3)cc12 [Compound 208, N-(5-(2-(2-(4-methyl-1-(2,2,2-trifluoroethyl)piperidin-4-yl)phenoxy)ethyl)-1H-indol-3-yl)acetamide] | 1000 to 5000 nM
6 | O=C(Nc1c[nH]c2ccc(C(O)CCc3ccc(C(F)(F)F)cc3)cc12)C1CC1 (centres unmarked) [Compound 209, N-(5-(1-hydroxy-3-(4-(trifluoromethyl)phenyl)propyl)-1H-indol-3-yl)cyclopropanecarboxamide] | 200 to 1000 nM
7 | O=C(Nc1c[nH]c2ccc(OCCc3ccc(C(F)(F)F)cc3)cc12)C1CN(CC(F)(F)F)C1 [Compound 210, 1-(2,2,2-trifluoroethyl)-N-(5-(4-(trifluoromethyl)phenethoxy)-1H-indol-3-yl)azetidine-3-carboxamide] | 40 to 200 nM
8 | CO[C@H]1C[C@H](C(=O)Nc2c[nH]c3ccc(OCCc4ccc(C(F)(F)F)cc4)cc23)C1 [Compound 211, trans-3-methoxy-N-(5-(4-(trifluoromethyl)phenethoxy)-1H-indol-3-yl)cyclobutane-1-carboxamide] | 40 to 200 nM
9 | CC(=O)Nc1c[nH]c2ccc(CCOc3ccc(C(F)(F)F)cc3)c(F)c12 [Compound 213, N-(4-fluoro-5-(2-(4-(trifluoromethyl)phenoxy)ethyl)-1H-indol-3-yl)acetamide] | 200 to 1000 nM
10 | CC(=O)Nc1c[nH]c2ccc(CCOc3ccc(Cl)c(Cl)c3)cc12 [Compound 214, N-(5-(2-(3,4-dichlorophenoxy)ethyl)-1H-indol-3-yl)acetamide] | 200 to 1000 nM
11 | CC(=O)Nc1c[nH]c2ccc(CCOc3ccc(C(F)(F)F)cn3)cc12 [Compound 215, N-(5-(2-((5-(trifluoromethyl)pyridin-2-yl)oxy)ethyl)-1H-indol-3-yl)acetamide] | 200 to 1000 nM
12 | O=C(Nc1c[nH]c2ccc(OCCc3ccc(C(F)(F)F)cc3)cc12)C1CC1(F)Cl (centres unmarked) [Compound 216, 2-chloro-2-fluoro-N-(5-(4-(trifluoromethyl)phenethoxy)-1H-indol-3-yl)cyclopropane-1-carboxamide] | 200 to 1000 nM
13 | O=C(Nc1c[nH]c2ccc(OCCc3ccc(C(F)(F)F)cc3)cc12)C1CC(Cl)C1 (centres unmarked) [Compound 217, 3-chloro-N-(5-(4-(trifluoromethyl)phenethoxy)-1H-indol-3-yl)cyclobutane-1-carboxamide] | 40 to 200 nM
14 | O=C(Nc1c[nH]c2ccc(OCCc3ccc(C(F)(F)F)cc3)cc12)C1(F)CC1 [Compound 218, 1-fluoro-N-(5-(4-(trifluoromethyl)phenethoxy)-1H-indol-3-yl)cyclopropane-1-carboxamide] | 200 to 1000 nM
15 | O=C(Nc1c[nH]c2ccc(CCOc3ccc(C(F)(F)F)cc3)cc12)C1CN(CC(F)(F)F)C1 [Compound 219, 1-(2,2,2-trifluoroethyl)-N-(5-(2-(4-(trifluoromethyl)phenoxy)ethyl)-1H-indol-3-yl)azetidine-3-carboxamide] | 40 to 200 nM
16 | CO[C@H]1C[C@H](C(=O)Nc2c[nH]c3ccc(CCOc4ccc(C(F)(F)F)cc4)cc23)C1 [Compound 220, trans-3-methoxy-N-(5-(2-(4-(trifluoromethyl)phenoxy)ethyl)-1H-indol-3-yl)cyclobutane-1-carboxamide] | 40 to 200 nM
17 | CO[C@H]1C[C@@H](C(=O)Nc2c[nH]c3ccc(CCOc4ccc(C(F)(F)F)cc4)cc23)C1 [Compound 221, cis-3-methoxy-N-(5-(2-(4-(trifluoromethyl)phenoxy)ethyl)-1H-indol-3-yl)cyclobutane-1-carboxamide] | 40 to 200 nM
18 | CO[C@H]1C[C@@H](C(=O)Nc2c[nH]c3ccc(OCCc4ccc(C(F)(F)F)cc4)cc23)C1 [Compound 222, cis-3-methoxy-N-(5-(4-(trifluoromethyl)phenethoxy)-1H-indol-3-yl)cyclobutane-1-carboxamide] | 40 to 200 nM
19 | CC(=O)Nc1c[nH]c2cc(F)c(CCOc3ccc(C(F)(F)F)cc3)cc12 [Compound 223, N-(6-fluoro-5-(2-(4-(trifluoromethyl)phenoxy)ethyl)-1H-indol-3-yl)acetamide] | 40 to 200 nM

Row | Compound | EC50
20 | CC(=O)Nc1c[nH]c2ccc(CCOc3ccc(C4CCC(F)(F)CC4)cc3)cc12 [Compound 224, N-(5-(2-(4-(4,4-difluorocyclohexyl)phenoxy)ethyl)-1H-indol-3-yl)acetamide] | 40 to 200 nM
21 | CC(=O)Nc1c[nH]c2ccc(CCOc3ccc(C4CC(F)(F)C4)cc3)cc12 [Compound 225, N-(5-(2-(4-(3,3-difluorocyclobutyl)phenoxy)ethyl)-1H-indol-3-yl)acetamide] | 40 to 200 nM
22 | CC(=O)Nc1c[nH]c2ccc(CCOc3ccc(C4CCOCC4)cc3)cc12 [Compound 226, N-(5-(2-(4-(tetrahydro-2H-pyran-4-yl)phenoxy)ethyl)-1H-indol-3-yl)acetamide] | 1000 to 5000 nM
23 | O=C(Nc1c[nH]c2ccc(O[C@H]3C[C@H](c4ccc(C(F)(F)F)cc4)C3)cc12)C1CN(CCC(F)(F)F)C1 [Compound 227, N-(5-(trans-3-(4-(trifluoromethyl)phenyl)cyclobutoxy)-1H-indol-3-yl)-1-(3,3,3-trifluoropropyl)azetidine-3-carboxamide] | 40 to 200 nM
24 | CC(=O)Nc1c[nH]c2ccc(CCOc3ccc(C)cc3)cc12 [Compound 228, N-(5-(2-(p-tolyloxy)ethyl)-1H-indol-3-yl)acetamide] | 200 to 1000 nM
25 | CC(=O)Nc1c[nH]c2ccc(CCOc3ccc(Cl)cc3)cc12 [Compound 229, N-(5-(2-(4-chlorophenoxy)ethyl)-1H-indol-3-yl)acetamide] | 200 to 1000 nM
26 | CC(=O)Nc1c[nH]c2ccc(CCOc3ccc(C4CCC4)cc3)cc12 [Compound 230, N-(5-(2-(4-cyclobutylphenoxy)ethyl)-1H-indol-3-yl)acetamide] | 40 to 200 nM
27 | CC(=O)Nc1c[nH]c2ccc(CCOc3cccc(C(F)(F)F)c3)cc12 [Compound 231, N-(5-(2-(3-(trifluoromethyl)phenoxy)ethyl)-1H-indol-3-yl)acetamide] | 200 to 1000 nM
28 | CC(=O)Nc1c[nH]c2ccc(CCOc3ccc(C(F)(F)F)nc3)cc12 [Compound 232, N-(5-(2-((6-(trifluoromethyl)pyridin-3-yl)oxy)ethyl)-1H-indol-3-yl)acetamide] | 1000 to 5000 nM
29 | CC(=O)Nc1c[nH]c2ccc(OC3CN(c4ccc(C(F)(F)F)cc4)C3)cc12 [Compound 233, N-(5-((1-(4-(trifluoromethyl)phenyl)azetidin-3-yl)oxy)-1H-indol-3-yl)acetamide] | 40 to 200 nM
30 | COC1CC(C(=O)Nc2c[nH]c3ccc(OCCc4ccc(C(F)(F)F)cc4)cc23)C1 (centres unmarked) [Compound 234, 3-methoxy-N-(5-(4-(trifluoromethyl)phenethoxy)-1H-indol-3-yl)cyclobutane-1-carboxamide] | 40 to 200 nM
31 | CC1(C(=O)Nc2c[nH]c3ccc(OCCc4ccc(C(F)(F)F)cc4)cc23)CCC1 [Compound 235, 1-methyl-N-(5-(4-(trifluoromethyl)phenethoxy)-1H-indol-3-yl)cyclobutane-1-carboxamide] | 40 to 200 nM
32 | CC1(C)CC(C(=O)Nc2c[nH]c3ccc(OCCc4ccc(C(F)(F)F)cc4)cc23)C1 [Compound 236, 3,3-dimethyl-N-(5-(4-(trifluoromethyl)phenethoxy)-1H-indol-3-yl)cyclobutane-1-carboxamide] | 40 to 200 nM
33 | CC1(C(=O)Nc2c[nH]c3ccc(OCCc4ccc(C(F)(F)F)cc4)cc23)CCOCC1 [Compound 237, 4-methyl-N-(5-(4-(trifluoromethyl)phenethoxy)-1H-indol-3-yl)tetrahydro-2H-pyran-4-carboxamide] | 40 to 200 nM
34 | CC1(C(=O)Nc2c[nH]c3ccc(OCCc4ccc(C(F)(F)F)cc4)cc23)COC1 [Compound 238, 3-methyl-N-(5-(4-(trifluoromethyl)phenethoxy)-1H-indol-3-yl)oxetane-3-carboxamide] | 40 to 200 nM
35 | O=C(Nc1c[nH]c2ccc(OCCc3ccc(C(F)(F)F)cc3)cc12)C1CCOCC1 [Compound 239, N-(5-(4-(trifluoromethyl)phenethoxy)-1H-indol-3-yl)tetrahydro-2H-pyran-4-carboxamide] | 40 to 200 nM
36 | O=C(Nc1c[nH]c2ccc(CC(O)Cc3ccc(C(F)(F)F)cc3)cc12)C1CC1 (centres unmarked) [Compound 240, N-(5-(2-hydroxy-3-(4-(trifluoromethyl)phenyl)propyl)-1H-indol-3-yl)cyclopropanecarboxamide] | 200 to 1000 nM
37 | COCCC(=O)Nc1c[nH]c2ccc(O[C@H]3C[C@H](c4ccc(C(F)(F)F)cc4)C3)cc12 [Compound 241, 3-methoxy-N-(5-((1r,3r)-3-(4-(trifluoromethyl)phenyl)cyclobutoxy)-1H-indol-3-yl)propanamide] | 40 to 200 nM
38 | CO[C@H]1C[C@H](C(=O)Nc2c[nH]c3ccc(O[C@H]4C[C@H](c5ccc(C(F)(F)F)cc5)C4)cc23)C1 [Compound 242, trans-3-methoxy-N-(5-(trans-3-(4-(trifluoromethyl)phenyl)cyclobutoxy)-1H-indol-3-yl)cyclobutane-1-carboxamide] | 40 to 200 nM
